Results as given in patent US5776935A, “Pyrido-phtalazin diones and their use against neurological disorders associated with excitotoxicity and malfunctioning of glutamatergic neurotransmission” (Merz & Co. GmbH & Co., priority 1996, dated 1998).
Read-outs that look alike come from different tables or passages of the source.

What was measured:
NMDA receptor [1] = biological target: T1, NMDA receptor (Mus musculus, UniProt P35438); experiment: Maximal electroshock (MES)-induced tonic convulsions; format: in vivo; settings: i.p.; for ED50: mouse, ip, 0.25 h, read-out: MES ID50
T1 construct: from tissue; host or cells: living mice (albino Swiss males for NMDA and PTZ tests, NMR females for MES)
Procedure: To assess NMDA receptor antagonistic properties of the tested agents by assessing anticonvulsive effects. Additionally the role of organic acid transporters in the elimination from the brain of tested agents was assessed by using an inhibitor, Probenicid, on the duration of anticonvulsive activity.
Male albino Swiss mice (19-21 g) housed 10-15 per cage were used for the NMDA lethality test (Leander et al., 1988). For pentylenetetrazol (PTZ)-induced convulsions male albino Swiss mice (25-34 g.) housed 40 per cage (58×38×20 cm) were used while in the maximal electroshock (MES) and motor impairment tests NMR female mice (18-28 g) housed 5 per cage were employed. All animals were kept with water and food ad libittum under a 12-h light-dark cycle (light on at 6 a.m.), and at a controlled temperature (20°±0.5° C.). All experiments were performed between 10 a.m. and 5 p.m. Tested agents were injected 15 min. i.p before the induction of convulsions if not stated otherwise (see below). Mrz 2/502 was dissolved in saline added with NaOH. Most other agents were dissolved in the following solution: 0.606 g Tris; 5.0 g. glucose; 0.5 g. Tween 80; and 95 ml water. The choline and tetramethylammonium salts were dissolved in distilled water.
MES (100 Hz, 0.5 sec shock duration, 50 mA shock intensity, 0.9 ms impulse duration, Ugo Basile) was applied through corneal electrodes. The presence of tonic convulsions was scored (tonic extension of hind paws with minimum angle to the body of 90°). In an additional experiment mice were injected with Probenicid (200 mg/kg) 30 min before administration of the tested agents to assess the role of organic acid transport in elimination (duration of action). The aim was to obtain ED50 s for all parameters scored using the Litchfield Wilcoxon (1949) test for quantal dose responses.

cortical neurones = experiment: Excitotoxicity in vitro (NMDA, LDH efflux); format: cell-based, rat; settings: for IC50: Rattus norvegicus, Cortical neurone, 0.5 mM NMDA/1 μM glycine, 24 h, read-out: Cytotoxicity in vitro IC50; for neuroprotection in vitro: low μM concentrations
Procedure: Isolation of cortical neurones was similar to that described for patch clamp recordings except for the use of foetal rats at 17-19 days gestation. Neurones were plated in 24-multiwell (Greiner) at a density of 300,000 cells/well coated with poly-D-lysine 0.025 mg/ml. Cells were cultured in Dulbecco's modified essential medium (DMEM, GIBCO) supplemented with 10% heat inactivated foetal calf serum (GIBCO). Cultures were maintained at 37° C. at 5% CO2. The medium was changed first after one week and then every 3 days by replacing half of the medium with fresh medium. Cultures aged 17 days were used for experiments.
Exposure to EAA was performed in serum-free MEM-N2 medium (Bottenstein 1979) containing 0.5 mM NMDA/1 μM glycine and the drug to be tested. Cells were pre-incubated with drugs and 1 μM glycine for 15 minutes before addition of NMDA. After 24 h the cytotoxic effect was morphologically examined under a phase contrast microscope and biochemically quantitified by measuring the efflux of LDH.
The activity of LDH was determined in the supernatant after 24 h according to the method of Wroblewski and La Due (1955). Briefly, 0.1 ml of the supernatant was added to 0.9 ml sodium-phosphate buffer (pH=7.5) containing sodium pyruvate (22.7 mM) and NADH (0.8 mg/10 ml) at room temperature. The conversion of pyruvate to lactate was recorded at 340 nm over 10 minutes in a Kontron Spectrophotometer.

[2] = In vivo systemic and / or CNS availability
AMPA receptor = experiment: Patch clamp, inward currents to AMPA in cultured superior colliculus neurones; format: cell-based, rat; settings: AMPA 100 μM
Procedure: Cells were mechanically dissociated in 0.05% DNAase / 0.3% ovomucoid (Sigma) following a 15 minute pre-incubation with 0.66% trypsin / 0.1% DNAase (Sigma). The dissociated cells were then centrifuged at 18G for 10 minutes, resuspended in minimum essential medium (Gibco) and plated at a density of 200,000 cells cm onto poly-L-lysine (Sigma)-precoated plastic petri dishes (Falcon). The cells were nourished with NaHCO3 /HEPES-buffered minimum essential medium supplemented with 5% foetal calf serum and 5% horse serum (Gibco) and incubated at 37° C. with 5%CO2 at 95% humidity. The medium was exchanged completely following inhibition of further glial mitosis with cytosine-β-D-arabinofuranoside (20 μM Sigma) after about 7 days in vitro. Thereafter the medium was exchanged partially twice weekly. […] Moreover, the relatively small neurones (soma 15-20 μm .phi.) are ideally suited to minimise problems of buffered diffusion for concentration clamp experiments.
Patch clamp recordings were made from these neurones with polished glass electrodes (4-6 m.OMEGA.) in the whole cell mode at room temperature (20°-22° C.) with the aid of an EPC-7 amplifier (List). Test substances were applied by switching channels of a custom made fast superfusion system with a common outflow (10-20 ms exchange times). The contents of the intracellular solution were as follows (mM): CsCl (120), TEACl (20), EGTA (10), MgCl2 (1), CaCl2 (0.2), glucose (10), ATP (2), cAMP (0.25); pH was adjusted to 7.3 with CsOH or HCl. The extracellular solutions had the following basic composition (mM): NaCl (140), KCl (3), CaCl2 (0.2), glucose (10), HEPES (10), sucrose (4.5), tetrodotoxin (TTX 3*10-4). For most experiments glycine (1 μM) was present in all solutions. Experiments to test the glycine-dependence of the tricyclic "pyrido-phtalazin diones" were performed in the continuous presence of increasing concentrations of glycine (1-10 μM).
In contrast, three of these potent glycine, antagonists were only very weak antagonists of inward currents to AMPA (100 μM). […] This profile of action, although very weak, is typical for competitive AMPA receptor antagonists which preferentially block the peak non-desensitised state, low affinity state of the receptor (see Parsons et al., 1994).

NMDA receptor [3] = biological target: T2, NMDA receptor (Rattus norvegicus, UniProt P35439); experiment: Microelectrophoretic application of NMDA to spinal neurones in vivo; settings: i.v., responses of single rat spinal neurones
T2 construct: endogenous in cells
Procedure: (§1) The ability of these glycineB antagonists to act as NMDA receptor antagonists in vivo was assessed using i.v. administration against responses of single neurones in the rat spinal cord to microelectrophoretic application of AMPA and NMDA.

AMPA = experiment: Microelectrophoretic application of AMPA to spinal neurones in vivo; settings: i.v., responses of single rat spinal neurones
Procedure: as §1

[4] = peak currents, read-out: IC50 against peak AMPA induced currents
[5] = peak currents, read-out: Peak AMPA IC50
[6] = plateau currents, read-out: Plateau AMPA IC50

| Compound | ED50 (NMDA receptor [1]; 15 min before induction) [mg/kg] | IC50 (cortical neurones) [µM] | activity in the MES test (NMDA receptor [1]) | IC50 (AMPA receptor; [4]) [µM] | IC50 (AMPA receptor; [5]) [µM] | IC50 (AMPA receptor; [6]) [µM] | Microelectrophoretic NMDA ID50 (NMDA receptor [3]) [mg/kg] | other results |
| --- | --- | --- | --- | --- | --- | --- | --- | --- |
| O=c1[nH][nH]c(=O)c2nc3ccc(Br)cc3cc12 [Mrz 2/503] | > 100 | > 20 | – | – | – | – | – | – |
| O=c1[nH]nc(O)c2c1cc1cc(Br)ccc1[n+]2[O-] [Mrz 2/514, 8-bromo-4-hydroxy-1-oxo-1,2-dihydropyridazino[4,5-b]-quinoline 5-oxide] | 20.2 | – | effective | 73 | 72.7 | > 100 | – | in vivo systemic and / or CNS availability versus associated class I compounds [2]: much better; IC50 (AMPA receptor; plateau currents, listed as 514, read-out: Plateau AMPA IC50): 307 µM |
| O=c1[nH]nc(O)c2c1cc1cc(Cl)ccc1[n+]2[O-] [Mrz 2/502, 8-chloro-4-hydroxy-1-oxo-1,2-dihydropyridazino[4,5-b]-quinoline 5-oxide] | – | < 5 | effective | 25 | 25 | > 100 | 1.2 | Microelectrophoretic NMDA ID50 (NMDA receptor [3]; listed as 502): 1.2 mg/kg; MES ID50 (NMDA receptor [1]; 15 min before induction, listed as 502, 15 min): 47.6 mg/kg; IC50 (AMPA receptor; plateau currents, listed as 502, read-out: Plateau AMPA IC50): 150 µM; Microelectrophoretic AMPA ID50 (AMPA; listed as 502): 4.9 mg/kg; neuroprotection in vitro (cortical neurones): effective neuroprotectants |
| O=c1[nH][nH]c(=O)c2nc3cc(Cl)c(Cl)cc3cc12 [Mrz 2/515] | > 100 | – | – | – | – | – | – | – |
| O=c1[nH][nH]c(=O)c2nc3ccc(F)cc3cc12 [Mrz 2/519] | > 60 | – | – | – | – | – | > 16.0 | Microelectrophoretic AMPA ID50 (AMPA): > 16.0 mg/kg |
| O=c1[nH][nH]c(=O)c2nc3ccc(Cl)cc3cc12 [Mrz 2/501] | > 100 | < 5 | – | – | – | – | > 16.0 | Microelectrophoretic AMPA ID50 (AMPA): > 16.0 mg/kg; neuroprotection in vitro (cortical neurones): effective neuroprotectants |
| O=c1[nH]nc(O)c2c1cc1cc(F)ccc1[n+]2[O-] [Mrz 2/516, 8-fluoro-4-hydroxy-1-oxo-1,2-dihydropyridazino[4,5-b]-quinoline 5-oxide] | 16.6 | – | effective | 18 | 17.6 | > 100 | 1.8 | Microelectrophoretic NMDA ID50 (NMDA receptor [3]; listed as 516): 1.8 mg/kg; in vivo systemic and / or CNS availability versus associated class I compounds [2]: much better; Microelectrophoretic AMPA ID50 (AMPA; listed as 516): 3.6 mg/kg |
